The record followed here is publication PMC10671431, “New Derivatives of N-Hydroxybutanamide: Preparation, MMP Inhibition, Cytotoxicity, and Antitumor Activity” (International Journal of Molecular Sciences, 2023).

Data set [1] has as its system U-251 MG. Put plainly: Cytotoxicity, MTT test. It counts as cell-based. Conditions: Homo sapiens, 72 h of exposure. As to the method: Cell culture. A-172 (human glioblastoma cells), HepG2 (human hepatocellular carcinoma cells), M-HeLa (human cervical adenocarcinoma cells, M subclone), Vero (African green monkey kidney epithelial cells), and FetMSC (human embryonic mesenchymal stem cells) were purchased from the Russian Collection of Cell Cultures of Vertebrates (Institute of Cytology RAS, St. Petersburg, Russia). The U-251 MG cell line (human glioblastoma-astrocytoma) was purchased from the European Collection of Authenticated Cell Cultures (Salisbury, UK). All cells were grown at 37 °C in an atmosphere of 5% CO2. A-172 and Vero cells were cultured in DMEM medium (PanEco, Moscow, Russia). HepG2, HeLa, and U-251 MG cells were cultured in EMEM medium (PanEco). FetMSC cells were cultured in F12/DMEM medium (PanEco). All incubation media were supplemented with 10% fetal calf serum (BioWest, Nuaillé, France), 50 U/mL penicillin, and […] streptomycin (PanEco). Additionally, media for HeLa, HepG2, and U-251 MG cells were supplemented with 2 mM glutamine (PanEco) and 1% essential amino acids (PanEco), media for A-172 and Vero cells were supplemented with 4 mM glutamine, and the medium for FetMSC cells was supplemented with 3 mM glutamine. The medium for U-251 MG cells was additionally supplemented with 1 mM sodium pyruvate (PanEco).
Cytotoxicity studies. The cytotoxicity of the compounds was assessed using the MTT test. Cells were seeded into 96-well plates at varying concentrations of 5 × 10^4 cells/mL (A-172, Vero and HeLa), 7 × 10^4 cells/mL (HepG2 and U-251 MG), and 10 × 10^4 cells/mL (FetMSC). The studied compounds were added to the incubation medium 24 h after seeding at concentrations ranging from 7.8 μM to 500 μM. All compounds were dissolved in DMSO and diluted with the incubation medium to their final concentrations just before use. The incubation medium in wells was aspirated and replaced with medium containing the studied compounds. The final concentration of DMSO in all samples was 0.1%. Control samples were treated with 0.1% DMSO. After 72 h of exposure, 3-(4,5-dimethylthiazol-2-yl)-2,5-diphenyl-2H-tetrazolium bromide (MTT) (Dia-M, Moscow, Russia) was added to the incubation medium at a concentration of 0.5 mg/mL. The resulting MTT-formazan crystals were dissolved in DMSO. The optical density was measured at 570 nm with a background wavelength of 620 nm using a Spark 10M plate reader. IC50 values were determined using a median effect analysis from the dose–effect relationships.

For data set [2], the system named is BDF1 mice. As to the kind of experiment: Acute toxicity in vivo. As to the method: Acute toxicity. Experiments involving animals were conducted at the Unique Scientific Unit “Nursery and Vivarium of the FRC PCP MC RAS” in accordance with the rules established by the Commission on Bioethics of the FRC PCP MC RAS (protocol No. 7/22 dated 20 June 2022) and the European Convention for the Protection of Vertebrate Animals for experimental and scientific purposes. Clinically healthy BDF1 hybrid males weighing 20–22 g were utilized. The mice were housed in a conventional vivarium with a 12 h light regime and provided with free access to water and food. Each experimental group consisted of six animals. Compound 4 was dissolved in DMSO and then diluted with 0.9% NaCl to reduce the DMSO concentration to 10%. The solution was administered intraperitoneally at single doses ranging from 200 mg/kg to 1000 mg/kg. The control group received 10% DMSO in 0.9% NaCl intraperitoneally. The animals were monitored daily for 14 days, with attention given to their overall condition, activity, and appetite. At the end of the experiment, all animals were euthanized by inhalation of ether, followed by a pathoanatomical autopsy.

“Also recorded” adds a separate entry of the source.

`O=C(CCC(=O)Nc1ccc(I)cc1)NO` [Compound 4, N^1-hydroxy-N^4-(4-iodophenyl)butanediamide] displayed a half-maximal inhibitory concentration (IC50) in data set [1] of 401 ± 21.1 µM. Moreover, the toxicity classification result in data set [2] (intraperitoneally, doses up to 1000 mg/kg, classification of [48]) is reported as “slightly toxic”. The body weight change entry in data set [2] (single i.p. dose 300 mg/kg or lower, 300 mg/kg) was “stable increase in body weight; also recorded: did not impact weight gain”; in data set [2] (single i.p. dose 400 mg/kg), “slower weight gain”; in data set [2] (single i.p. dose 1000 mg/kg, within 7 days, partial recovery on day 14), “slight decrease in body weight”; in data set [2] (single i.p. doses 600 mg/kg and 800 mg/kg, entire observation period) it was “No significant changes in body weight”.
